Data as given in patent US20210052703A1 (SHANGHAI BENEMAE PHARMACEUTICAL CORPORATION, priority 2018, published 2021).
Like-named read-outs stand apart in the source and are kept apart here.

What was measured:
[1] = tested on: male diet induced obesity (DIO) mice; details: for % of Gastric Remains / Gross Weight of Stomach / Propelling Distance of Carbon Powder / Propelling Rate of Carbon Powder: X ± SE
Protocol: Five minutes after subcutaneous injection, gavage was conducted using 5% carbon powder suspension (in 2% carboxymethylcellulose solution) at 1.5 ml/100 g body weight. […] The stomach was wiped dry with filter paper and weighed for the gross weight of the stomach. Then the content of the stomach was removed and the stomach was weighed for the net weight. The respective distance from the pyloric sphincter to the front of carbon powder suspension and to the distal end of the large intestine was measured. • propelling distance of carbon powder in the intestine (cm)=distance from pylorus to the proximal end of carbon powder; • mass of carbon powder gavaged=concentration of carbon powder suspension×volume; • propelling rate of carbon powder (%)=propelling distance of carbon powder in the intestine (cm)/entire length of intestine (cm)×100%; • rate of gastric remains (%)=(gross weight of stomach−net weight of stomach)/mass of carbon powder gavaged×100%.
The animals were fasted 29-33 hours before injection, and the animals were not given any water 5-7 hours before injection. Injections were made by subcutaneous administration to the neck, at 0.1 ml/100 g body weight.

[2] = tested on: Sprague-Dawley (SD) rats; test: stomach emptying and carbon powder propelling in SD rats (Example 1); assay type: in vivo, rat; details: X ± SE
Protocol: Each group had 10 rats, half male and half female. The tails of the rats were labeled as follows:
The dose selection is calculated based on human dose. The clinical human dose is estimated to be about 0.4 mg/injection, one injection per day, which corresponds to 36 μg/kg rat dose, calculated based on the body surface area. Accordingly, the rats were tested at a medium dose of 30 μg/kg, a low dose at 50% of the medium dose, and a high dose at 200% of the medium dose. The clinical human dose of liraglutide for treating obesity is 3.0 mg/injection, one injection per day, which corresponds to 270 μg/kg rat dose, calculated based on the body surface area.
The positive control was liraglutide injectable formulation, which was stored in dark, sealed condition. The rats were raised and kept at the Laboratory Animal Center, Shanghai University of Traditional Chinese Medicine.
The injectable formulations were made and diluted at the time of experiment, as follows:
The rats were fasted for 16 hours with only water provided. Before being divided into groups, the rats were weighed and weights were recorded (cage numbering and tail labeling). Based on the body weight, the rats were randomly divided into 5 groups, 10 in each group, half male and half female.
The rats were administered with appropriate amounts of Beinaglutide or liraglutide based on their body weights by subcutaneous injection. Female rats were injected after male rats, in the order of their group numbers: 101, 201, 301, 401, 501, 102, 202, 302, 402, 502, etc. The formulations were injected to the rats by lifting the skin in the back, placing the needle of the syringe subcutaneously and injecting. When retrieving the needle, the site of injection was pressed with hand to avoid leakage of the formulation. The amount of injection is about 0.1 ml/100 g body weight.

[3] = tested on: animals having a normal level of blood sugar; test: blood sugar and insulin in animals having a normal level of blood sugar; assay type: in vivo
[4] = pharmacokinetic studies in monkey models; details: in vivo, sc
[5] = tested on: patients with type 2 diabetes; test: trial 5C: Beinaglutide with metformin, multicenter, type 2 diabetes; assay type: in vivo, human
Excerpt: Note: Covariance analysis was used for comparison between groups. The dependent variable was the change in body weight relative to baseline, and the covariate was baseline. Body weight change from baseline=post-treatment−baseline. Data from 5C test data.

[6] = tested on: diabetes patients; details: 0.2 mg TID for 12 weeks; temporary
[7] = body weight, food intake and body composition in diet-induced obesity cynomolgus monkeys (Example 4); details: both, cynomolgus monkey, in vivo, sc
Protocol: (§1) The monkeys are divided into two groups based on age, sex, body weight and BMI, each group having one male and one female.
(§2) The study included three periods: baseline period (the first week), treatment period (the second week through the seventh week), and recovering period (the eighth week). After the monkeys adapted to the meal time for at least 30 days, the body weight, BMI, and body composition of each animal was determined at day 7 of the first baseline period.
(§3) Group 2 animals were administered three times a day at a dose of 10 μg/kg each time during week 2, three times a day at a dose of 20 μg/kg each time during week 3, and three times a day at a dose of 40 μg/kg each time during the first three days of week 4.
(§4) The dose for Group 1 animals during week 5 through week 7 was determined based on the dose given to Group 2 animals during week 2 through week 4. Group 1 animals were administered twice a day at a dose of 10 μg/kg each time during week 5, twice a day at a dose of 20 μg/kg each time during week 6, and twice a day at a dose of 20 μg/kg each time during week 7 (same dose as week 6). During the 6-week treatment period, the body weight and crown-rump height of each animal were measured at the end of each week. The body fat content was measured at week 4 and week 7. No administration was given during week 8.
(§5) The body weight was measured once a week, and crown-rump height was measured at the end of week 1, week 4, and week 7 when Dual-Energy X-ray Absorptiometry (DEXA) scan was taken. The animals were anesthetized by intramuscular administration of 0.02 m/kg Shumianning. While resting on one side, the animals were measured from the top of the head to the bottom of tail as the crown-rump height. BMI was calculated using the formula: BMI=body weight (kg)/crown-rump height (m)^2. DEXA scan was conducted while the animals were anesthetized and body compositions were analyzed based on DEXA scan.

[8] = tested on: diet-induced obesity cynomolgus monkeys; test: as above
Protocol: as §1, §2, §3, §4, §5

[9] = female rats, Beinaglutide 15 μg/kg subcutaneous
[10] = female rats, Beinaglutide 30 μg/kg subcutaneous
[11] = female rats, Beinaglutide 60 μg/kg subcutaneous
[12] = male rats, Beinaglutide 15 μg/kg subcutaneous
[13] = male rats, Beinaglutide 30 μg/kg subcutaneous
[14] = male rats, Beinaglutide 60 μg/kg subcutaneous
[15] = Test group (Beinaglutide+metformin), 84 days (12 weeks) from baseline
[16] = Test group, 248 subjects, 84 days from baseline
[17] = Test group, 84 days from baseline

## CC[C@H](C)[C@H](NC(=O)[C@H](Cc1ccccc1)NC(=O)[C@H](CCC(=O)O)NC(=O)[C@H](CCCCN)NC(=O)[C@H](C)NC(=O)[C@H](C)NC(=O)[C@H](CCC(N)=O)NC(=O)CNC(=O)[C@H](CCC(=O)O)NC(=O)[C@H](CC(C)C)NC(=O)[C@H](Cc1ccc(O)cc1)NC(=O)[C@H](CO)NC(=O)[C@H](CO)NC(=O)[C@@H](NC(=O)[C@H](CC(=O)O)NC(=O)[C@H](CO)NC(=O)[C@@H](NC(=O)[C@H](Cc1ccccc1)NC(=O)[C@@H](NC(=O)CNC(=O)[C@H](CCC(=O)O)NC(=O)[C@H](C)NC(=O)[C@@H](N)Cc1cnc[nH]1)[C@@H](C)O)[C@@H](C)O)C(C)C)C(=O)N[C@@H](C)C(=O)N[C@@H](Cc1c[nH]c2ccccc12)C(=O)N[C@@H](CC(C)C)C(=O)N[C@H](C(=O)N[C@@H](CCCCN)C(=O)NCC(=O)N[C@@H](CCCNC(=N)N)C(=O)O)C(C)C [Beinaglutide]
[1]; from DIO mice 15 μg/kg
  human dose corresponding to effective dose: 0.12 mg/day
[1]; male DIO mice
  effective dose (inhibition of stomach emptying), as low as: 0.015 mg/kg
[1]; male DIO mice, 15 μg/kg
  % of Gastric Remains: 58.92 ± 3.39%
  Gross Weight of Stomach: 0.49 ± 0.02 g
  Propelling Distance of Carbon Powder: 20.50 ± 1.89 cm
  Propelling Rate of Carbon Powder: 47.34 ± 4.63%
[1]; male DIO mice, 20 μg/kg
  % of Gastric Remains: 63.46 ± 9.45%
  Gross Weight of Stomach: 0.50 ± 0.04 g
  Propelling Distance of Carbon Powder: 14.21 ± 2.59 cm
  Propelling Rate of Carbon Powder: 34.86 ± 6.72%
[1]; male DIO mice, 25 μg/kg
  % of Gastric Remains: 62.69 ± 7.26%
  Gross Weight of Stomach: 0.53 ± 0.03 g
  Propelling Distance of Carbon Powder: 15.00 ± 2.45 cm
  Propelling Rate of Carbon Powder: 35.25 ± 5.72%
[1]; male DIO mice, 50 μg/kg
  % of Gastric Remains: 70.86 ± 7.41%
  Gross Weight of Stomach: 0.55 ± 0.02 g
  Propelling Distance of Carbon Powder: 10.00 ± 1.04 cm
  Propelling Rate of Carbon Powder: 23.80 ± 2.41%
[1]; male DIO mice, 75 μg/kg
  % of Gastric Remains: 78.34 ± 5.75%
  Gross Weight of Stomach: 0.57 ± 0.03 g
  Propelling Distance of Carbon Powder: 9.29 ± 1.23 cm
  Propelling Rate of Carbon Powder: 21.51 ± 2.63%
[1]; male DIO mice, 100 μg/kg
  % of Gastric Remains: 74.37 ± 6.06%
  Gross Weight of Stomach: 0.56 ± 0.02 g
  Propelling Distance of Carbon Powder: 9.00 ± 1.12 cm
  Propelling Rate of Carbon Powder: 20.87 ± 2.19%
[2]; [9]
  % of Gastric Remains: 96.81 ± 11.61 %
  Gross Weight of Stomach: 3.10 ± 0.22 g
  Propelling Distance of Carbon Powder: 41.96 ± 5.30 cm
  Propelling Rate of Carbon Powder: 46.97 ± 5.54 %
[2]; [10]
  % of Gastric Remains: 132.66 ± 16.34 %
  Gross Weight of Stomach: 3.78 ± 0.35 g
  Propelling Distance of Carbon Powder: 30.58 ± 3.66 cm
  Propelling Rate of Carbon Powder: 33.88 ± 3.98 %
[2]; [11]
  % of Gastric Remains: 141.53 ± 7.18 %
  Gross Weight of Stomach: 3.90 ± 0.15 g
  Propelling Distance of Carbon Powder: 5.40 ± 1.84 cm
  Propelling Rate of Carbon Powder: 5.94 ± 1.99 %
[2]; [12]
  % of Gastric Remains: 44.14 ± 17.18%
  Gross Weight of Stomach: 2.86 ± 0.52 g
  Propelling Distance of Carbon Powder: 64.22 ± 3.84 cm
  Propelling Rate of Carbon Powder: 61.80 ± 4.14%
[2]; [13]
  % of Gastric Remains: 54.92 ± 14.32%
  Gross Weight of Stomach: 3.08 ± 0.48 g
  Propelling Distance of Carbon Powder: 34.40 ± 5.91 cm
  Propelling Rate of Carbon Powder: 35.46 ± 6.15 %
[2]; [14]
  % of Gastric Remains: 128.70 ± 14.23 %
  Gross Weight of Stomach: 5.36 ± 0.52 g
  Propelling Distance of Carbon Powder: 11.90 ± 6.38 cm
  Propelling Rate of Carbon Powder: 12.28 ± 6.69 %
[3]
  effect on blood sugar and blood insulin level: neither decreased blood sugar nor increased blood insulin level
[4]
  half-life: 15 to 30 min
[5]; 0.2 mg three times a day with metformin, Baseline BMI 25.81
  Week 12 BMI: 25.09 kg/m^2
[5]; 0.2 mg three times a day with metformin, baseline to week 12, 0 mg group −0.40
  BMI Change: −0.72
[5]; 84 days after medication, covariance analysis, P 0.0075
  difference Test-Control group in body weight change, Corrected mean: −0.82
[5]; Test group (0.2 mg three times a day + metformin), overweight and obese patients, ITT, 84 days after medication
  change in body weight from baseline, median: -2.00 kg
[5]; Test group (0.2 mg three times a day + metformin), overweight and obese patients, ITT, 84 days after medication, 248 subjects
  change in body weight from baseline, Mean ± standard deviation: -2.22 ± 2.55 kg
[5]; [15]
  proportion of subjects with Weight loss ≥ 3%: (40.32) %
  proportion of subjects with weight loss ≥5%: (20.97) %
[5]; [16]
  number of subjects with Weight loss < 3%: 148
  number of subjects with Weight loss < 5%: 196
  number of subjects with Weight loss ≥ 3%: 100
  number of subjects with Weight loss ≥ 5%: 52
[5]; [17]
  proportion of subjects with Weight loss < 3%: (59.68) %
  proportion of subjects with Weight loss < 5%: (79.03) %
[6]
  most common side effects: nausea and vomiting
[7]
  MTD at 504 h: 0.02 to 0.04 mg/kg
[8]; Group 1, end of week 7, compared to baseline
  body fat content: decrease in body fat content
[8]; Group 2, end of week 4, compared to baseline
  body fat content: significant decrease in body fat content
[8]; Group 2, 40 μg/kg three times a day, first three days of week 4
  signs of anorexia: severe signs of anorexia
[8]; animal F1 (female, Group 1), Week 5, 10 μg/kg twice a day, Week 4 before treatment 5.96
  Body Weight: 5.92 kg
[8]; animal F1, Week 5, 10 μg/kg twice a day, Week 4 before treatment 41
  BMI: 39 kg/m^2
[8]; animal F1, Week 6, 20 μg/kg twice a day, Week 4 before treatment 5.96
  Body Weight: 5.94 kg
[8]; animal F1, Week 6, 20 μg/kg twice a day, Week 4 before treatment 41
  BMI: 39 kg/m^2
[8]; animal F1, Week 7, 20 μg/kg twice a day, Week 4 before treatment 5.96
  Body Weight: 5.84 kg
[8]; animal F1, Week 7, 20 μg/kg twice a day, Week 4 before treatment 41
  BMI: 38 kg/m^2
[8]; animal F1, Week 7, after Beinaglutide weeks 5-7, Week 4 1.98
  Fat Content (DEXA): 1.81 kg
[8]; animal F1, Week 7, after Beinaglutide weeks 5-7, Week 4 4.09
  Lean Mass (DEXA): 3.98 kg
[8]; animal F1, Week 7, after Beinaglutide weeks 5-7, Week 4 33.2
  Body Fat Percentage: 31.0%
[8]; animal F2 (female, Group 2), Week 2, 10 μg/kg three times a day, Week 1 baseline 6.18
  Body Weight: 5.96 kg
[8]; animal F2, Week 3, 20 μg/kg three times a day, Week 1 baseline 6.18
  Body Weight: 5.76 kg
[8]; animal F2, Week 4, 40/20 μg/kg three times a day, Week 1 baseline 6.18
  Body Weight: 5.56 kg
[8]; animal F2, Week 4, 40/20 μg/kg three times a day, Week 1 baseline 41
  BMI: 37 kg/m^2
[8]; animal F2, Week 4, after Beinaglutide weeks 2-4, baseline 2.97
  Fat Content (DEXA): 2.71 kg
[8]; animal F2, Week 4, after Beinaglutide weeks 2-4, baseline 3.17
  Lean Mass (DEXA): 2.89 kg
[8]; animal F2, Week 4, after Beinaglutide weeks 2-4, baseline 48.1
  Body Fat Percentage: 48.7%
[8]; animal M1 (male, Group 1), Week 5, 10 μg/kg twice a day, Week 4 before treatment 11.20
  Body Weight: 10.90 kg
[8]; animal M1, Week 5, 10 μg/kg twice a day, Week 4 before treatment 51
  BMI: 49 kg/m^2
[8]; animal M1, Week 6, 20 μg/kg twice a day, Week 4 before treatment 11.20
  Body Weight: 10.44 kg
[8]; animal M1, Week 6, 20 μg/kg twice a day, Week 4 before treatment 51
  BMI: 47 kg/m^2
[8]; animal M1, Week 7, 20 μg/kg twice a day, Week 4 before treatment 11.20
  Body Weight: 10.26 kg
[8]; animal M1, Week 7, 20 μg/kg twice a day, Week 4 before treatment 51
  BMI: 46 kg/m^2
[8]; animal M1, Week 7, after Beinaglutide weeks 5-7, Week 4 3.66
  Fat Content (DEXA): 3.15 kg
[8]; animal M1, Week 7, after Beinaglutide weeks 5-7, Week 4 7.35
  Lean Mass (DEXA): 6.92 kg
[8]; animal M1, Week 7, after Beinaglutide weeks 5-7, Week 4 32.7
  Body Fat Percentage: 30.7%
[8]; animal M2 (male, Group 2), Week 2, 10 μg/kg three times a day, Week 1 baseline 10.52
  Body Weight: 10.30 kg
[8]; animal M2, Week 2, 10 μg/kg three times a day, Week 1 baseline 52
  BMI: 51 kg/m^2
[8]; animal M2, Week 3, 20 μg/kg three times a day, Week 1 baseline 10.52
  Body Weight: 10.00 kg
[8]; animal M2, Week 4, 40/20 μg/kg three times a day, Week 1 baseline 10.52
  Body Weight: 9.70 kg
[8]; animal M2, Week 4, 40/20 μg/kg three times a day, Week 1 baseline 52
  BMI: 48 kg/m^2
[8]; animal M2, Week 4, after Beinaglutide weeks 2-4, baseline 3.49
  Fat Content (DEXA): 2.88 kg
[8]; animal M2, Week 4, after Beinaglutide weeks 2-4, baseline 6.88
  Lean Mass (DEXA): 6.59 kg
[8]; animal M2, Week 4, after Beinaglutide weeks 2-4, baseline 33.2
  Body Fat Percentage: 29.7%
[8]; compared to baseline period, n=4, p<0.05
  body weight after three-week treatment: significant weight loss
[8]; during Beinaglutide treatment period compared to before treatment, p<0.05
  weekly food/calories intake: significantly decreased
[8]; two groups of animals
  BMI after three weeks of treatment: decreased
